From patent US20250235543A1, “MODIFIED PROTEINS AND PROTEIN DEGRADERS” (Cullgen (Shanghai), Inc., priority 2021, published 2025) come the findings set out here.

The subject of one experiment is cyclin D1. Kind of experiment: Cyclin D1 percentage degradation in Calu-1 cells (immunoblotting). The note with it: 200 nM, 16 hours. Format: cell-based. Summed up: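 Cyclin D1 degradation was assessed by western blot. Clarified lysates, obtained by RIPA lysis with inhibitors and centrifugation at 13,000 rpm, were normalized by BCA protein assay and separated by SDS-PAGE. Bands were detected with Western ECL Substrate on a Bio-Rad ChemiDoc MP Imaging system and quantified in Image Lab software to derive percentage degradation.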
(In general: A western blot detects proteins with antibodies after separation by electrophoresis.)

Experiment [1] has as its system cyclin D1, cyclin D2, cyclin D3. The experiment can be described thus: Immunoblot of cyclin D protein levels in Calu-1 (and BT-549) cells. Format: cell-based. To be noted: Calu-1 cells, 16 hours; CPD-042 vs CPD-002, CPD-049 vs CPD-031. On the procedure:
Specific exemplary heterobifunctional compounds were characterized in Calu-1, BT-549 and other cells. Cells that express cyclin D1-3 and CDK4/6 proteins were treated with heterobifunctional compounds disclosed herein at indicated concentrations for 16 hours. Cells were collected, lysed and subject to immunoblotting using an antibody specific to cyclin D1, cyclin D2, cyclin D3, CDK4, CDK6 or phosphorylated R^b proteins. Tubulin or GAPDH was used as the loading control. DMSO treatment was used as the negative control.
In a time-course study, Calu-1 cells were treated with 500 nM CPD-002, or 100 nM CPD-031 for indicated period of time prior to immunoblotting (FIG. 4A-4B).
The heterobifunctional compound-mediated degradation was dependent on the ubiquitin-proteasome system and cullin E3 ligase. […] In addition, DDB1 E3 ligase was critical for the degrader-induced cyclin D downregulation. Depletion of DDB1 using CRISPR-Cas9 technology attenuated the cyclin D degradation induced by CPD-031 (FIG. 5C).
(§1) To verify that heterobifunctional compound-mediated degradation is dependent on the binding to CDK4-cyclin D complex, we designed three negative control compounds, CPD-042, CPD-049 and CPD-380, which are derived from CPD-002 CPD-031 and CPD-343, respectively. These three control compounds bear the same DDB1 ligand and linker as their corresponding active heterobifunctional compounds but with modified warheads to impair the binding of the control compounds to CDK4. […] However, the binding to CDK4 is not sufficient for cyclin D degradation. Two cereblon (CRBN)-recruiting reference heterobifunctional compounds, CP-10 (Su, J Med Chem, 2019; CAS No.: 2366268-80-4) and BSJ-03-123 (Brand, Cell Chem Biol, 2019; CAS No.: 2361493-16-3) were analyzed in Calu-1 cells.

The next experiment addresses T1, DDB1 (Homo sapiens, UniProt Q16531, D705G/DEL396-460/DEL463-701/I704S/T703N).
T1 construct: His6 (N, cleaved yes); TEV protease cleavage site (N, cleaved yes); made in house; host or cells: SF9 insect cells, Bac-to-Bac baculovirus, pFastBacHTB vector
The experiment can be described thus: SPR binding assay to immobilized DDB1ΔBPB. To be noted: binding affinities to DDB1. Here is the method:
The binding affinities of heterobifunctional compounds to DDB1 were determined by SPR assay (FIG. 1A-1B). Purified DDB1ΔBPB proteins were immobilized on a CM5 sensor chip, and a dose range of compound solutions were injected in multi-cycle kinetic format. Data were fit to a steady state model to provide equivalent dissociation constants (Kd).
Human DDB1ΔBPB (UniProt: Q16531. BPB domain, aa 396 to 705, is replaced with a GNGNSG linker) coding sequences were cloned into pFastBacHTB vector and were expressed in SF9 cells using Bac-to-Bac baculovirus expression system (Thermo Fisher Scientific). The expression constructs include an N-terminal His6-tag to facilitate the purification, and a TEV protease cleavage site in between. DDB1ΔBPB proteins were obtained from supernatant of cell lysates and purified through sequential application of Ni affinity column (Ni-NTA column, Bio-Rad) and size-exclusion column (Superdex 200 16/600GL column, GE Healthcare) chromatography. Protein tags were cleaved off by TEV protease, and the resulting untagged proteins were further purified by Ni affinity column. Purified proteins were verified by immunoblotting, analytic SEC, and LC-MS.
SPR studies were performed on a Biacore X100 plus instrument (GE Healthcare). Immobilization of purified DDB1ΔBPB was carried out at 25° C. using a CM5 sensor chip. The surface was pre-equilibrated in HBS-EP running buffer (10 mM HEPES, pH7.4, 150 mM NaCl, 3 mM EDTA, 0.05% P20), before it was activated with EDC/NHS. DDB1ΔBPB proteins were immobilized by amine coupling to a density of 10,000-12,000 resonance units (RUs) on flow cell FC2, whereas flow cell FC1 was used as reference. Both protein immobilized and reference surfaces were deactivated with 1M ethanolamine. All interaction experiments were performed at 25° C. Test compounds were prepared and serially diluted in HBS-EP running buffer containing final 5% DMSO (6-point two-fold serial dilution, 100 μM-3.125 μM final concentration of compounds). Compound solutions were injected individually in multi-cycle kinetic format without regeneration (flow rate 30 μl/min, association time 120 s, dissociation time 120 s). Sensorgrams from reference surfaces and blank injections were subtracted from the raw data (double-referencing) and the data was solvent-corrected prior to analysis. All data were fit to steady state affinity model using Biacore Evaluation Software to provide equivalent dissociation constants (Kd).

The test system of the next experiment is Calu-1 cells. Kind of experiment: Anti-viability / anti-proliferation in Calu-1 cells. To be noted: CPD-042 vs CPD-002, CPD-049 vs CPD-031. Format: cell-based. Here is the method: FIG. 6 show immunoblots of cyclin D1, cyclin D2, cyclin D3, and CDK4 proteins expressed by Calu-1 cells after treatment with a dose range of control compounds CPD-042 (A), or CPD-049 (B) for 16 hours, and anti-viability curves of Calu-1 cells in the presence of CPD-002 and CPD-042 (C), or CPD-031 and CPD-049 (D).
FIG. 11A-11B show immunoblots of cyclin D1, CDK4, and CDK6 proteins expressed by Calu-1 cells after treatment with a dose range of heterobifunctional reference compound CP-10, or BSJ-03-123 for 8 hours (FIG. 11A), and anti-viability curves of Calu-1 cells in the presence of CP-10, or BSJ-03-123 for 3 days (FIG. 11B).
as §1

The subject of experiment [2] is cyclin D1, cyclin D2, cyclin D3, CDK4 and CDK6. The experiment can be described thus: Immunoblotting of cyclin D and CDK4/6 protein levels in Calu-1 cells. To be noted: dose range, 16 hours, negative control compounds. Format: cell-based. On the procedure:
Calu-1 (FIG. 2A) or BT-549 (FIG. 2B) cells were treated with CPD-002, CPD-004, or palbociclib at indicated concentrations for 16 hours.
Calu-1 cells were treated with CPD-031 at indicated concentrations for 16 hours.
Calu-1 cells were treated with CPD-002 or CPD-031 at 500 nM or 100 nM, respectively for indicated period of time.
Calu-1 cells were pre-treated with DMSO, 20 μM MG-132 (MG), 5 μM MLN4924 (MLN) or 1 μM TAK-243 (TAK) for 2 hours, and subsequently incubated with 500 nM CPD-002, 500 nM CPD-004, or 100 nM CPD-031 for another 4 h or 2 h prior to immunoblotting (FIG. 5A-5B).
Calu-1 cells were treated with a dose range of negative control compounds CPD-042 or CPD-049 for 16 hours (FIG. 6A-6B).
Calu-1 cells were treated with reference compounds CP-10 or BSJ-03-123 at indicated concentrations for 8 hours.
Cultured cells were washed with cold PBS once and lysed in cold RIPA buffer supplemented with protease inhibitors and phosphatase inhibitors (Beyotime Biotechnology). The solutions were then incubated at 4° C. for 30 min with gentle agitation to fully lysed cells. Cell lysates were centrifuged at 13,000 rpm for 10 min at 4° C. and pellets were discarded. Total protein concentrations in the lysates were determined following BCA assays (Beyotime Biotechnology). Cell lysates were mixed with Laemmli loading buffer and heated at 99° C. for 5 min. Proteins were resolved on SDS-PAGE and visualized using Western ECL Substrate kits on a ChemiDoc MP Imaging system (Bio-Rad). Protein bands were quantitated using the Image Lab software provided by Bio-Rad.

For the next experiment, the system named is Calu-1. Kind of experiment: Cell viability assay, Calu-1. Format: cell-based. To be noted: Calu-1 cells, 96-well plates, serial dilution, 3 days. On the procedure: Cells were treated with CDK4/6 inhibitors palbociclib, ribociclib, or abemaciclib, or heterobifunctional compounds CPD-002 or CPD-031 following a 9-point serial dilution for 3 days.
Cells were seeded at a density of 2,000-5,000 cells per well in 96-well assay plates and treated with test compounds following a 10-point serial dilution for 3-6 days. Cell viability was determined using the CellTiter-Lumi assay kit according to the manufacturer's instructions. The dose-response curves were determined and IC50 values were calculated using the GraphPad Prism software following a nonlinear regression (least squares fit) method. Data presented was mean±standard deviation (SD) unless otherwise indicated.

In another experiment the target is T2, CDK4 (Homo sapiens, UniProt P11802).
T2 construct: endogenous in cells; host or cells: Calu-1
Kind of experiment: CDK4 percentage degradation in Calu-1 cells (immunoblotting). Format: cell-based. To be noted: Calu-1 cells, 200 nM, 16 hours; read-out: CDK4 Degradation (200 nM). Summed up:
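CDK4 degradation was measured by immunoblotting. Cells were washed in cold PBS and lysed in RIPA buffer with inhibitors for 30 min at 4° C., then spun at 13,000 rpm to clear. After BCA protein determination, lysates were heated at 99° C. for 5 min in Laemmli buffer, resolved on SDS-PAGE, imaged on a ChemiDoc MP with ECL substrate, and band intensities quantified.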

The structures appear in SMILES notation. Where only a bound is given, the exact number is not on record here.

In general, Kd refers to the concentration at which binding is half-saturated. Higher therefore signals a looser complex.

T2 sequence (P11802 2-303 limits assumed): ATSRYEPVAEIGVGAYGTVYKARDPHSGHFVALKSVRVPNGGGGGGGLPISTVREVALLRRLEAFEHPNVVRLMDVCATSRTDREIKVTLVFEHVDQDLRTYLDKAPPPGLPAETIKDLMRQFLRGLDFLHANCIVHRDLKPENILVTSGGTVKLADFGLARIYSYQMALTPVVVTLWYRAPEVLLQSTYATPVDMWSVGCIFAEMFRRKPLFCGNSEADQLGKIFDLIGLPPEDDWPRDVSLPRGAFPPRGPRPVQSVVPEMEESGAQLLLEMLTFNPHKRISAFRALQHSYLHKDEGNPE
T2 sequence (P24385 whole entry partner): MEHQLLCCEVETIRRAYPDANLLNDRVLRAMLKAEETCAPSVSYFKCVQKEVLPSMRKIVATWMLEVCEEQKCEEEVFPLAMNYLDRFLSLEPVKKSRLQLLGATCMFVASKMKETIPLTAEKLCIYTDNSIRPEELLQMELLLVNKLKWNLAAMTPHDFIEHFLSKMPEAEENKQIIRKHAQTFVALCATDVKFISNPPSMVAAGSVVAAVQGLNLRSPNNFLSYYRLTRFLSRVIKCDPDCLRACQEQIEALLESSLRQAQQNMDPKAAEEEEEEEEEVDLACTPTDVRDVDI
T2 sequence (Q16531 2-1140 limits assumed, further chain): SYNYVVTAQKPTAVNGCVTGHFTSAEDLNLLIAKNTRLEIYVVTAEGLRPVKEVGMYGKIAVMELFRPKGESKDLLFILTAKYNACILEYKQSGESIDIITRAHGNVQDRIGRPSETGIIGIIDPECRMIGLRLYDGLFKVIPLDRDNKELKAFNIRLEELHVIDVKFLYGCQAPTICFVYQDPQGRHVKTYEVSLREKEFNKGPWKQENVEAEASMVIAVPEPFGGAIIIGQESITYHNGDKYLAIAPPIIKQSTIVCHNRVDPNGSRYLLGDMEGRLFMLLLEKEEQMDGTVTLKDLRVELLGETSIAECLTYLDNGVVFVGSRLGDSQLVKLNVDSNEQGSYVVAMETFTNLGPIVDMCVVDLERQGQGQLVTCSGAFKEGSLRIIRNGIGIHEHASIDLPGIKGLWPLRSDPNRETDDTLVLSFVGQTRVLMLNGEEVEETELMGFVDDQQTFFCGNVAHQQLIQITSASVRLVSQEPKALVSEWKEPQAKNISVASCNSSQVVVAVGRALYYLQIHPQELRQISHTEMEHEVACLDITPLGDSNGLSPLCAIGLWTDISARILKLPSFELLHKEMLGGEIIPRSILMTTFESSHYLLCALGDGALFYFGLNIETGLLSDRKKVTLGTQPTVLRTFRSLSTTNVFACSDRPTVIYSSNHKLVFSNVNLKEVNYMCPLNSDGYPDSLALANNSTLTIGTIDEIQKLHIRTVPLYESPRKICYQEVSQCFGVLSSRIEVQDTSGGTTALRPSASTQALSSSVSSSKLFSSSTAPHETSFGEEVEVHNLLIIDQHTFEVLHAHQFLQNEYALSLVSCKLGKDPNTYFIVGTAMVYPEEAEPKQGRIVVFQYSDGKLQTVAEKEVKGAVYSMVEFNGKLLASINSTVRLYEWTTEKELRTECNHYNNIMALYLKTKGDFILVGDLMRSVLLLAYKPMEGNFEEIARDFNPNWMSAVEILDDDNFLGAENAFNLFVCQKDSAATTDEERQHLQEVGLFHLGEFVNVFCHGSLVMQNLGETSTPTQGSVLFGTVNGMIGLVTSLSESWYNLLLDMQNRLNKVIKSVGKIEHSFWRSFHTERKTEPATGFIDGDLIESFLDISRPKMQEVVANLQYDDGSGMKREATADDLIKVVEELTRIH
T1 sequence (Q16531 other isoform, or with tags, fused parts or gaps DEL396-460/DEL463-701/T703N/I704S/D705G): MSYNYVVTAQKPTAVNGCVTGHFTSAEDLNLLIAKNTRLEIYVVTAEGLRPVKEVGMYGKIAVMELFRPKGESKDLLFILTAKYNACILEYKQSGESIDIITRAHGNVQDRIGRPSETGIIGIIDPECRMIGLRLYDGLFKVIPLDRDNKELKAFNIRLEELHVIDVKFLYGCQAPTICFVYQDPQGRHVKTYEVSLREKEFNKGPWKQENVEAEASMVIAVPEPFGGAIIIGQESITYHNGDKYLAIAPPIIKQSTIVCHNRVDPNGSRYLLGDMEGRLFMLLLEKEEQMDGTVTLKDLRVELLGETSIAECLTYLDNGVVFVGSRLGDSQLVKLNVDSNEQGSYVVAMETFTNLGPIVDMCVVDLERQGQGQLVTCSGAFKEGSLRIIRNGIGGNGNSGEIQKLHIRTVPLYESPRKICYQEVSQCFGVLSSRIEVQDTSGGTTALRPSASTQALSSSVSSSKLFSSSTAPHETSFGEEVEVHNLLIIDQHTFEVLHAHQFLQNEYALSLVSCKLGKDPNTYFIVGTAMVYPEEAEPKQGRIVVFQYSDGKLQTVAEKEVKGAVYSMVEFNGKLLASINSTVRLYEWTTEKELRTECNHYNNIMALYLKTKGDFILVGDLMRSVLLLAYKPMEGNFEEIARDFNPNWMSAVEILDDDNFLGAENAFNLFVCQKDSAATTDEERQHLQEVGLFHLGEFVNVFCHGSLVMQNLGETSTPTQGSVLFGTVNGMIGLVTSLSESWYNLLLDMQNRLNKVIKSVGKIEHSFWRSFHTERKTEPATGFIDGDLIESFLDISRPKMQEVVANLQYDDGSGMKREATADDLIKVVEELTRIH

Take `CC(=O)c1c(C)c2cnc(N(C)c3ccc(N4CCN(CC(=O)NCCOCCOCCOCCOCCOCCNc5ccc(C(=O)Nc6ncc(C)s6)c(C)c5)CC4)cn3)nc2n(C2CCCC2)c1=O` [CPD-042, 4-((1-(4-(6-((6-Acetyl-8-cyclopentyl-5-methyl-7-oxo-7,8-dihydropyrido[2,3-d]pyrimidin-2-yl)(methyl)amino)pyridin-3-yl)piperazin-1-yl)-2-oxo-6,9,12,15,18-pentaoxa-3-azaicosan-20-yl)amino)-2-methyl-N-(5-methylthiazol-2-yl)benzamide]: the “CyclinD1 Degradation (200 nM)” value in the experiment on cyclin D1 is “D (protein percentage degradation <30%)”. Besides, the “decrease of degradation potency versus corresponding active compound” value in experiment [1] is above 10 fold. Moreover, at DDB1, the Kd was below 20 µM. For the same compound, in the experiment on Calu-1 cells, the “decrease of cellular anti-proliferation activity versus corresponding active compound” value is on record as above 20 fold. The “degradation potencies compared with corresponding active heterobifunctional compounds” value in experiment [2] was “much weaker degradation potencies”. The “cell viability (cellular anti-proliferation activity)” value with Calu-1 is reported as “much weaker cellular anti-proliferation activities”. On CDK4, the inhibition at 0.2 µM was below 30%.
For the compound `CC(=O)c1c(C)c2cnc(N(C)c3ccc(N4CCN(CC(=O)NCCOCCOCCOCCOCCOCCNc5ccc(C(=O)Nc6nc(C)c(C)s6)c(C)c5)CC4)cn3)nc2n(C2CCCC2)c1=O` [CPD-049, 4-((1-(4-(6-((6-Acetyl-8-cyclopentyl-5-methyl-7-oxo-7,8-dihydropyrido[2,3-d]pyrimidin-2-yl)(methyl)amino)pyridin-3-yl)piperazin-1-yl)-2-oxo-6,9,12,15,18-pentaoxa-3-azaicosan-20-yl)amino)-N-(4,5-dimethylthiazol-2-yl)-2-methylbenzamide], the “CyclinD1 Degradation (200 nM)” value in the experiment with cyclin D1 is on record as “D (protein percentage degradation <30%)”. Further, in experiment [1], the “decrease of degradation potency versus corresponding active compound” value was above 100 fold. At DDB1, this compound showed a Kd of 20 to 50 µM. Moreover, the “decrease of cellular anti-proliferation activity versus corresponding active compound” value with Calu-1 cells was above 100 fold. Moreover, in experiment [2], the “degradation potencies compared with corresponding active heterobifunctional compounds” value is given as “much weaker degradation potencies”. In addition, the “cell viability (cellular anti-proliferation activity)” value in the experiment on Calu-1 is reported as “much weaker cellular anti-proliferation activities”. The inhibition at 0.2 µM at CDK4 was below 30%.
